From ChEMBL document CHEMBL6092217 (Eur J Med Chem, 2024)
The source made the active and inactive calls. No cut-off for these calls is given here.

What was measured:
Tubulin (Homo sapiens) = Tubulin (Homo sapiens) (UniProt P68371+Q9H4B7+P0DPH7+P68366+Q13509+Q71U36+P04350+Q3ZCM7+P07437+P68363+Q9BQE3+Q6PEY2+Q13885+Q9BVA1+Q9BUF5); assay: Inhibition of tubulin polymerization in human HT-29 cells assessed as reduction in beta-tubulin expression 50 to 200 nM incubated for 24 hrs by Western blot analysis; assay type: cell-based; details: dose 50-200 nM
HT-29 [1] = assay: Induction of cell cycle arrest in human HT-29 cells assessed as accumulation of cells at G2 phase at 100 nM incubated for 24 hrs by flow cytometry analysis (reference value: 13 %); assay type: functional
HT-29 [2] = assay: Induction of apoptosis in human HT-29 cells assessed as necrotic cells at 100 nM incubated for 24 hrs by FITC/PI staining based flow cytometry analysis (reference value: 0.017 %); assay type: functional
[3] = Toxicity in BALB/c mouse assessed as lung damage at 10 to 40 mg/kg, iv measured after 21 days by H and E staining based analysis; assay type: organism-based; details: in vivo, 504 h, dose 10-40 mg/kg, time 21 day
[4] = Toxicity in ICR mouse assessed as effect on monocyte count at 10 to 40 mg/kg, iv administered every 2 days and measured after 14 days; assay type: organism-based; details: in vivo, 336 h, dose 10-40 mg/kg, time 14 day

Compound: COc1ccc(N(C)c2nc(/C=C/c3cccc(OC)c3)nc3ccccc23)cc1
- inhibition (Tubulin (Homo sapiens)): Active
- Activity (HT-29 [1]): 39.8%
- Activity (HT-29 [2]): 2.72%
- Activity [3]: Non-toxic
- Activity [4]: Non-toxic
